Legend:
[1] = Ames microplate format (MPF) assay, TA98; details: Salmonella typhimurium
Excerpt: (§1) The Ames microplate format (MPF) mutagenicity assay (Xenometrix, Allschwil, Switzerland) was used to test KM-568 mutagenicity. Growth, exposure, and indicator media, positive control chemicals, and four Salmonella typhimurium strains TA98, TA100, TA1535 and TA1537 were included in the kit. TA100 and TA1535 strains detect base substitution mutations, whereas TA98 and TA1537 indicate frameshift mutations. The strains of bacteria included in a kit are in compliance with the Organization for Economic Cooperation and Development (OECD) 471 Guideline for Testing of Chemicals.
(§2) The assay is a liquid microplate modification of the traditional Salmonella test. During the procedure, bacteria are exposed to different concentrations of a test compound for 90 min in a medium containing sufficient histidine to support cell divisions. Then, the cultures are diluted in a pH indicator medium lacking histidine and aliquoted into 48 wells of a 384-well plate. Within 2 days, bacteria that have undergone reversion to amino acid prototrophy will form colonies. Products of bacteria metabolism reduce pH of the medium, changing the color of wells from purple to yellow.
(§3) The test procedure provided by Xenometrix and described in detail elsewhere was followed. Bacterial strains were grown overnight (14–16 h) in exposure medium in a shaker incubator and then exposed to KM-568 in 24-well plates for 90 min at 37 °C with agitation. Final KM-568 concentrations in the assay were 0.1, 0.2, and 0.5 mM. After preincubation, the cultures were diluted in the indicator medium and the contents of each 24-well culture were transferred to 48 wells on a 384-well plate and incubated further for 48 h at 37 °C without agitation. After the exposure, the number of wells containing bacteria was scored for yellow wells. […] Pure DMSO was used as a negative control. All doses were performed in triplicate.
(§4) The fold increase of revertants relative to the solvent control was determined by dividing the mean number of positive wells at each dose by the solvent control at baseline. The solvent control at baseline was calculated as the mean number of positive wells in the solvent control plus one standard deviation (SD). When an increase of more than twofold relative to the baseline at more than one dose with a dose–response was observed, the sample was classified as positive, whereas when no response > 2 times the baseline and no dose–response was stated, the sample was classified as negative.

[2] = Ames microplate format (MPF) assay, TA1537; details: Salmonella typhimurium
Excerpt: as §1, §2, §3, §4

[3] = test system: Salmonella typhimurium TA1535; test: Ames microplate format (MPF) assay, TA1535; details: TA1535, positive control at 100 µg/mL
Excerpt: as §1, §2, §3, §4

[4] = test system: mice; details: mice i.p.; cited from earlier work
[5] = test system: mice; details: mice i.p.; cited from earlier work; remark: listed apart in the source
[6] = test system: rats; set-up: method as in doi:10.2174/157018012798192982; details: rats p.o.; cited from earlier work

Compound	MES ED50 [4]	scMET ED50 [5]	other results
O=[N+]([O-])c1ccc2c(c1)Cc1ccccc1-2 [2-NF, 2-nitrofluorene, reference compound]	–	–	fold induction at 90 min, 2 µg/mL [1]: 6.4
Nc1c2ccccc2nc2ccccc12 [9-AAc, 9-aminoacridine, reference compound]	–	–	fold induction at 90 min, 15 µg/mL [2]: 48
NNc1ccn([C@@H]2O[C@H](CO)[C@@H](O)[C@H]2O)c(=O)n1 [N4-ACT, N-4-aminocytidine, reference compound]	–	–	fold induction of the number of positive wells over baseline [3]: 14.7 fold
O=C(/C=C/c1ccccc1)N1CCCC(O)C1 (stereo not drawn) [R,S-(2E)-1-(3-hydroxypiperidin-1-yl)-3-phenylprop-2-en-1-one]	55.0 mg/kg	82.3 mg/kg	–
CC(O)CNC(=O)/C=C/c1ccc(Cl)cc1 (stereo not drawn) [R,S-(2E)-3-(4-chlorophenyl)-N-(2-hydroxypropyl)prop-2-enamide]	55.6 mg/kg	102.2 mg/kg	–
CC(O)CNC(=O)/C=C/c1ccccc1 (stereo not drawn) [R,S-(2E)-N-(2-hydroxypropyl)-3-phenylprop-2-enamide]	–	–	MES (pharmacological parameter, ED50) [6]: 22.8 mg/kg; MES (pharmacological parameter, ED50) [4]: 47.1 mg/kg; scMET (pharmacological parameter, ED50) [5]: 77.1 mg/kg
Cc1ccccc1/C=C/C(=O)N[C@@H](C)CO [S-(2E)-N-(1-hydroxypropan-2-yl)-3-(2-methylphenyl)prop-2-enamide]	42.6 mg/kg	58.4 mg/kg	–
